Measurements: a compilation of properties of binary mixtures (doi:10.1021/je060497d)

Experiment: xn = mol fraction of the nth substance listed
Settings: 101 kPa

CCCCCC[n+]1ccn(C)c1.F[P-](F)(F)(F)(F)F + CC(C)O
speed of sound [m/s]
Settings | x1 = 0.0011 | x1 = 0.0019 | x1 = 0.0024 | x2 = 0 | x2 = 0.0067 | x2 = 0.074 | x2 = 0.189 | x2 = 0.3042 | x2 = 0.3877 | x2 = 0.5107
293.15 K | 1157 | – | – | – | 1437 | 1427 | 1408 | 1388 | – | –
298.15 K | 1140 | 1141 | 1141 | 1424 | 1423 | 1413 | 1396 | 1375 | – | 1325
303.15 K | 1122 | 1124 | 1124 | 1411 | 1410 | – | 1383 | 1363 | 1346 | 1313

CCCC[n+]1ccn(C)c1.F[P-](F)(F)(F)(F)F + CC(C)O
speed of sound [m/s]
Settings | x1 = 0.0008 | x1 = 0.0011 | x2 = 0 | x2 = 0.0458 | x2 = 0.1055 | x2 = 0.1825 | x2 = 0.2864
293.15 K | 1156 | – | 1455 | – | 1441 | 1429 | 1409
298.15 K | 1139 | 1140 | 1443 | 1437 | 1429 | 1417 | 1397
303.15 K | – | 1122 | 1431 | 1425 | 1417 | 1405 | 1385

COS(=O)(=O)[O-].Cn1cc[n+](C)c1 + CC(C)O
speed of sound [m/s]
Settings | 293.15 K | 298.15 K | 303.15 K
x2 = 0 | 1826 | 1813 | –
x2 = 0.0498 | 1807 | 1797 | 1785
x2 = 0.0958 | 1791 | 1777 | –
x2 = 0.2008 | – | 1729 | 1720
x2 = 0.3063 | 1684 | 1670 | 1662
x2 = 0.4013 | 1611 | 1605 | 1602
x2 = 0.4957 | 1525 | 1534 | 1534
x2 = 0.5945 | – | 1444 | 1459
x2 = 0.7039 | 1338 | 1352 | 1370
x2 = 0.8013 | 1269 | 1271 | 1292
x2 = 0.9019 | – | 1198 | 1207
x2 = 0.951 | – | 1167 | 1166

CCCC[n+]1ccn(C)c1.F[P-](F)(F)(F)(F)F + CCC(C)=O
speed of sound [m/s]
Settings | 293.15 K | 298.15 K | 303.15 K
x2 = 0 | 1455 | 1443 | 1431
x2 = 0.0509 | 1449 | 1438 | –
x2 = 0.0987 | 1444 | 1433 | 1419
x2 = 0.1907 | 1433 | 1421 | –
x2 = 0.2915 | 1418 | 1408 | 1393
x2 = 0.4057 | 1399 | 1390 | 1374
x2 = 0.5074 | 1380 | 1369 | 1349
x2 = 0.5956 | – | – | 1322
x2 = 0.7008 | – | – | 1292
x2 = 0.7919 | 1301 | 1286 | 1260
x2 = 0.8942 | 1265 | 1248 | 1220
x2 = 0.9467 | – | 1224 | 1195

COS(=O)(=O)[O-].Cn1cc[n+](C)c1 + CCC(C)=O
speed of sound [m/s]
Settings | x1 = 0.0006 | x1 = 0.0012 | x1 = 0.0029 | x2 = 0 | x2 = 0.0257 | x2 = 0.0716 | x2 = 0.2017 | x2 = 0.2926
293.15 K | 1214 | – | 1217 | 1826 | 1819 | 1803 | 1750 | 1703
298.15 K | 1194 | 1195 | – | – | – | 1791 | 1737 | 1689
303.15 K | – | 1165 | 1168 | 1801 | – | – | 1724 | 1676

CCOC(C)=O + CCCCCCCC[n+]1ccn(C)c1.F[P-](F)(F)(F)(F)F
x1 = 1
Settings | speed of sound [m/s]
298.15 K | 1141
303.15 K | 1111

CC(C)O + CCCC[n+]1ccn(C)c1.F[P-](F)(F)(F)(F)F
x1 = 1
Settings | speed of sound [m/s]
293.15 K | 1156
303.15 K | 1121

CCC(C)=O + CCCC[n+]1ccn(C)c1.F[P-](F)(F)(F)(F)F
Settings | speed of sound [m/s]
303.15 K, x1 = 1 | 1163

CCOC(C)=O + CCCC[n+]1ccn(C)c1.F[P-](F)(F)(F)(F)F
Settings | speed of sound [m/s]
293.15 K, x1 = 1 | 1162

CCCCCCCC[n+]1ccn(C)c1.F[P-](F)(F)(F)(F)F + CCOC(C)=O
speed of sound [m/s]
Settings | 293.15 K | 298.15 K | 303.15 K
x2 = 0 | 1424 | 1408 | 1393
x2 = 0.0048 | – | 1408 | –
x2 = 0.0967 | 1408 | 1393 | 1379
x2 = 0.1981 | 1391 | 1377 | 1364
x2 = 0.2967 | 1375 | 1361 | 1348
x2 = 0.3954 | 1358 | 1344 | 1330
x2 = 0.5056 | 1337 | 1323 | –
x2 = 0.6061 | 1315 | 1299 | 1284
x2 = 0.7059 | 1288 | 1271 | 1253
x2 = 0.8004 | – | 1236 | 1218
x2 = 0.9036 | 1209 | 1189 | 1169
x2 = 0.9453 | 1189 | – | 1147

CCCC[n+]1ccn(C)c1.F[P-](F)(F)(F)(F)F + CCOC(C)=O
speed of sound [m/s]
Settings | 293.15 K | 298.15 K | 303.15 K
x2 = 0 | 1455 | 1443 | 1431
x2 = 0.0501 | 1447 | 1436 | 1420
x2 = 0.1003 | 1438 | 1427 | –
x2 = 0.1854 | 1421 | 1412 | 1401
x2 = 0.3 | – | 1391 | 1378
x2 = 0.4064 | 1379 | 1366 | 1354
x2 = 0.5117 | 1350 | – | –
x2 = 0.6032 | 1319 | 1310 | 1291
x2 = 0.7061 | 1280 | – | –
x2 = 0.802 | 1240 | 1228 | 1207
x2 = 0.9021 | – | 1180 | 1160
x2 = 0.948 | – | 1162 | 1137

COS(=O)(=O)[O-].Cn1cc[n+](C)c1 + CCOC(C)=O
speed of sound [m/s]
Settings | x2 = 0 | x2 = 0.0509 | x2 = 0.0706 | x2 = 0.0928 | x2 = 0.1254 | x2 = 0.1451
293.15 K | 1826 | 1808 | – | 1792 | 1775 | 1765
298.15 K | 1813 | 1795 | 1789 | 1778 | 1765 | 1752
303.15 K | 1801 | 1782 | 1777 | 1764 | 1746 | –

CC(C)O + COS(=O)(=O)[O-].Cn1cc[n+](C)c1
x1 = 1
Settings | speed of sound [m/s]
293.15 K | 1156
303.15 K | 1121

CCC(C)=O + COS(=O)(=O)[O-].Cn1cc[n+](C)c1
x1 = 1
Settings | speed of sound [m/s]
293.15 K | 1212
303.15 K | 1163

CCOC(C)=O + COS(=O)(=O)[O-].Cn1cc[n+](C)c1
x1 = 1
Settings | speed of sound [m/s]
293.15 K | 1162
303.15 K | 1111
